{"source": "patent US20080249077A1", "about": "“17.Beta.-Fluoromethoxycarbonyl-Androst-4-En-3-One Compounds With a 17.Alpha.-Carbonate Sustituent” (priority 2005, published 2008)", "biological_target": "T1, glucocorticoid receptor (Homo sapiens, UniProt P04150)", "T1 construct": "A549 cells stably transfected with a reporter gene; endogenous in cells; host or cells: A549 cells", "T1 sequence (P04150 1-777)": "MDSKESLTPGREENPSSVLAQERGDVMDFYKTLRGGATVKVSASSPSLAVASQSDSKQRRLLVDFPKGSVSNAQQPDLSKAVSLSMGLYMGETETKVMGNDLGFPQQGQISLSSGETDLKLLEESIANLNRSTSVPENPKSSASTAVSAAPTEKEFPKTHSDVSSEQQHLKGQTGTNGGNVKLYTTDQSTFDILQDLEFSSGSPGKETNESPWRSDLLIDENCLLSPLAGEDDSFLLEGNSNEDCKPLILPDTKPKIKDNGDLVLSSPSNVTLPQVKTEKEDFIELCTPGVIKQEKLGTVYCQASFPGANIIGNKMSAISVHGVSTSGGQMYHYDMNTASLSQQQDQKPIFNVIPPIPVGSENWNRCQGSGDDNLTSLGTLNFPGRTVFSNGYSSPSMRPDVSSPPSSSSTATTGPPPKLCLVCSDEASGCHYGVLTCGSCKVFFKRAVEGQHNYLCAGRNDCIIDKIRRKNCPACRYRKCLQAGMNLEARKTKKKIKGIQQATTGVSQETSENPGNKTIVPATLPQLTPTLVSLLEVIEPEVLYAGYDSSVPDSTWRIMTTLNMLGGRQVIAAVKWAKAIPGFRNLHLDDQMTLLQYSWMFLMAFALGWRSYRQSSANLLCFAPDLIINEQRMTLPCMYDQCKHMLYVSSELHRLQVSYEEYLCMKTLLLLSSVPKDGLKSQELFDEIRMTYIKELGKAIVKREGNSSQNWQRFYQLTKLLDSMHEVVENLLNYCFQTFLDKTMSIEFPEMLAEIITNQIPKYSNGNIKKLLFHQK", "test": "Assay for transactivation activity of the glucocorticoid agonists (MMTV-LTR renilla luciferase reporter in A549 cells)", "type": "cell-based", "conditions": "compound 6 hour at 37° C., read-out: maximal response relative to Dexamethasone (100%) (transactivation)", "description": "Assay for Transactivation Activity of the Glucocorticoid Agonists\nThe functional assay based on that described by R. J. H. Austin et al., Eur Resp J. (2002), 20, 1386-1392 measures the ability of compounds to directly transactivate gene expression. A549 cells stably transfected with a reporter gene containing the glucocorticoid responsive region of the mouse mammary tumour virus long terminal repeat (MMTV-LTR) coupled to renilla luciferase were treated with test compounds at appropriate doses for 6 hour at 37° C. The amount of luciferase activity present within the cells is then determined by measuring the light emitted following incubation with a suitable substrate. Dose response curves were constructed from which EC50 values were estimated and from which maximal responses are calculated relative to Dexamethasone (100%).", "data": [{"smiles": "CC[C@H]1CC[C@H](OC(=O)O[C@]2(C(=O)OCF)[C@H](C)C[C@H]3[C@@H]4C[C@H](F)C5=CC(=O)C=C[C@]5(C)[C@@]4(F)[C@@H](O)C[C@@]32C)CC1", "note": "(relative stereo) [Example 37, Fluoromethyl(6α,11β,16α,17α)-17-({[(trans-4-ethylcyclohexyl)oxy]carbonyl}oxy)-6,9-difluoro-11-hydroxy-16-methyl-3-oxoandrosta-1,4-diene-17-carboxylate]", "values": [{"measurement": "Emax", "value": "< 25", "unit": "%"}]}, {"smiles": "CC1CCCCC1OC(=O)OC1(C(=O)OCF)C(C)CC2C3CC(F)C4=CC(=O)C=CC4(C)C3(F)C(O)CC21C", "note": "(stereo not drawn) [Example 10, Fluoromethyl(6α,11β,16α,17α)-6,9-difluoro-11-hydroxy-16-methyl-17-[({[(1SR,2RS)-2-methylcyclohexyl]oxy}carbonyl)oxy]-3-oxoandrosta-1,4-diene-17-carboxylate]", "values": [{"measurement": "Emax", "value": "< 25", "unit": "%"}]}, {"smiles": "CCC(CC)OC(=O)O[C@]1(C(=O)OCF)[C@H](C)C[C@H]2[C@@H]3C[C@H](F)C4=CC(=O)C=C[C@]4(C)[C@@]3(F)[C@@H](O)C[C@@]21C", "note": "[Example 4, Fluoromethyl(6α,11β,16α,17α)-17-({[(1-ethylpropyl)oxy]carbonyl}oxy)-6,9-difluoro-11-hydroxy-16-methyl-3-oxoandrosta-1,4-diene-17-carboxylate]", "values": [{"measurement": "Emax", "value": "< 25", "unit": "%"}]}, {"smiles": "CC1CC2C3CC(F)C4=CC(=O)C=CC4(C)C3(F)C(O)CC2(C)C1(OC(=O)OC1CC2CCC1(C)C2(C)C)C(=O)OCF", "note": "[Example 29, Fluoromethyl(6α,11β,16α,17α)-6,9-difluoro-11-hydroxy-16-methyl-3-oxo-17-[({[(1R,2R,4R)-1,7,7-trimethylbicyclo[2.2.1]hept-2-yl]oxy}carbonyl)oxy]androsta-1,4-diene-17-carboxylate]", "values": [{"measurement": "Emax", "value": "< 25", "unit": "%"}]}, {"smiles": "CC(C)C1CCC(OC(=O)O[C@]2(C(=O)OCF)[C@H](C)C[C@H]3[C@@H]4C[C@H](F)C5=CC(=O)C=C[C@]5(C)[C@@]4(F)[C@@H](O)C[C@@]32C)CC1", "note": "(stereo partly drawn) [Example 11, Fluoromethyl(6α,11β,16α,17α)-6,9-difluoro-11-hydroxy-16-methyl-17-[({[4-(1-methylethyl)cyclohexyl]oxy}carbonyl)oxy]-3-oxoandrosta-1,4-diene-17-carboxylate]", "values": [{"measurement": "Emax", "value": "< 25", "unit": "%"}]}, {"smiles": "C[C@@H]1C[C@H]2[C@@H]3C[C@H](F)C4=CC(=O)C=C[C@]4(C)[C@@]3(F)[C@@H](O)C[C@]2(C)[C@@]1(OC(=O)O[C@H]1C[C@H]2CC[C@]1(C)C2(C)C)C(=O)OCF", "note": "[Example 28, Fluoromethyl(6α,11β,16α,17α)-6,9-difluoro-11-hydroxy-16-methyl-3-oxo-17-[({[(1R,2S,4R)-1,7,7-trimethylbicyclo[2.2.1]hept-2-yl]oxy}carbonyl)oxy]androsta-1,4-diene-17-carboxylate]", "values": [{"measurement": "Emax", "value": "< 25", "unit": "%"}]}, {"smiles": "COC1CCCCC1OC(=O)OC1(C(=O)OCF)C(C)CC2C3CC(F)C4=CC(=O)C=CC4(C)C3(F)C(O)CC21C", "note": "(stereo not drawn) [Example 18, Fluoromethyl(6α,11β,16α,17α)-6,9-difluoro-11-hydroxy-16-methyl-17-[({[(1RS,2RS)-2-(methyloxy)cyclohexyl]oxy}carbonyl)oxy]-3-oxoandrosta-1,4-diene-17-carboxylate]", "values": [{"measurement": "Emax", "value": "< 25", "unit": "%"}]}, {"smiles": "CC1CC2C3CC(F)C4=CC(=O)C=CC4(C)C3(F)C(O)CC2(C)C1(OC(=O)OC1CC2CCC1C2)C(=O)OCF", "note": "(stereo not drawn) [Example 12, Fluoromethyl(6α,11β,16α,17α)-17-({[(1RS,2RS,4SR)-bicyclo[2.2.1]hept-2-yloxy]carbonyl}oxy)-6,9-difluoro-11-hydroxy-16-methyl-3-oxoandrosta-1,4-diene-17-carboxylate]", "values": [{"measurement": "Emax", "value": "< 25", "unit": "%"}]}, {"smiles": "CC(OC(=O)O[C@]1(C(=O)OCF)[C@H](C)C[C@H]2[C@@H]3C[C@H](F)C4=CC(=O)C=C[C@]4(C)[C@@]3(F)[C@@H](O)C[C@@]21C)C1CCCC1", "note": "(stereo partly drawn) [Example 21, Fluoromethyl(6α,11β,16α,17α)-17-({[(1-cyclopentylethyl)oxy]carbonyl}oxy)-6,9-difluoro-11-hydroxy-16-methyl-3-oxoandrosta-1,4-diene-17-carboxylate]", "values": [{"measurement": "Emax", "value": "< 25", "unit": "%"}]}, {"smiles": "CCC(OC(=O)O[C@]1(C(=O)OCF)[C@H](C)C[C@H]2[C@@H]3C[C@H](F)C4=CC(=O)C=C[C@]4(C)[C@@]3(F)[C@@H](O)C[C@@]21C)C1CCCC1", "note": "(stereo partly drawn) [Example 20, Fluoromethyl(6α,11β,16α,17α)-17-({[(1-cyclopentylpropyl)oxy]carbonyl}oxy)-6,9-difluoro-11-hydroxy-16-methyl-3-oxoandrosta-1,4-diene-17-carboxylate]", "values": [{"measurement": "Emax", "value": "< 25", "unit": "%"}]}, {"smiles": "C[C@@H]1C[C@H]2[C@@H]3C[C@H](F)C4=CC(=O)C=C[C@]4(C)[C@@]3(F)[C@@H](O)C[C@]2(C)[C@@]1(OC(=O)OC1CCCC1)C(=O)OCF", "note": "[Example 31, Fluoromethyl(6α,11β,16α,17α)-17-{[(cyclopentyloxy)carbonyl]oxy}-6,9-difluoro-11-hydroxy-16-methyl-3-oxoandrosta-1,4-diene-17-carboxylate]", "values": [{"measurement": "Emax", "value": "< 25", "unit": "%"}]}, {"smiles": "C[C@@H]1C[C@H]2[C@@H]3C[C@H](F)C4=CC(=O)C=C[C@]4(C)[C@@]3(F)[C@@H](O)C[C@]2(C)[C@@]1(OC(=O)O[C@H]1C(C)(C)[C@H]2CC[C@]1(C)C2)C(=O)OCF", "note": "[Example 33, Fluoromethyl(6α,11β,16α,17α)-6,9-difluoro-11-hydroxy-16-methyl-3-oxo-17-[({[(1R,2R,4S)-1,3,3-trimethylbicyclo[2.2.1]hept-2-yl]oxy}carbonyl)oxy]androsta-1,4-diene-17-carboxylate]", "values": [{"measurement": "Emax", "value": "< 25", "unit": "%"}]}, {"smiles": "C[C@@H]1C[C@H]2[C@@H]3C[C@H](F)C4=CC(=O)C=C[C@]4(C)[C@@]3(F)[C@@H](O)C[C@]2(C)[C@@]1(OC(=O)O[C@@H]1C[C@@H]2CC[C@@]1(C)C2(C)C)C(=O)OCF", "note": "[Example 27, Fluoromethyl(6α,11β,16α,17α)-6,9-difluoro-11-hydroxy-16-methyl-3-oxo-17-[({[(1S,2R,4S)-1.7.7-trimethylbicyclo[2.2.1]hept-2-yl]oxy}carbonyl)oxy]androsta-1,4-diene-17-carboxylate]", "values": [{"measurement": "Emax", "value": "< 25", "unit": "%"}]}, {"smiles": "CCCC(OC(=O)O[C@]1(C(=O)OCF)[C@H](C)C[C@H]2[C@@H]3C[C@H](F)C4=CC(=O)C=C[C@]4(C)[C@@]3(F)[C@@H](O)C[C@@]21C)C(C)C", "note": "(stereo partly drawn) [Example 25, Fluoromethyl(6α,11β,16α,17α)-6,9-difluoro-11-hydroxy-16-methyl-17-[({[1-(1-methylethyl)butyl]oxy}carbonyl)oxy]-3-oxoandrosta-1,4-diene-17-carboxylate]", "values": [{"measurement": "Emax", "value": "< 25", "unit": "%"}]}, {"smiles": "C[C@@H]1C[C@H]2[C@@H]3C[C@H](F)C4=CC(=O)C=C[C@]4(C)[C@@]3(F)[C@@H](O)C[C@]2(C)[C@@]1(OC(=O)OC1C(C)(C)C1(C)C)C(=O)OCF", "note": "[Example 26, Fluoromethyl(6α,11β,16α,17α)-6,9-difluoro-11-hydroxy-16-methyl-3-oxo-17-({[(2,2,3,3-tetramethylcyclopropyl)oxy]carbonyl}oxy)androsta-1,4-diene-17-carboxylate]", "values": [{"measurement": "Emax", "value": "< 25", "unit": "%"}]}, {"smiles": "C[C@@H]1C[C@H]2[C@@H]3C[C@H](F)C4=CC(=O)C=C[C@]4(C)[C@@]3(F)[C@@H](O)C[C@]2(C)[C@@]1(OC(=O)OCC1C(C)(C)C1(C)C)C(=O)OCF", "note": "[Example 24, Fluoromethyl(6α,11β,16α,17α)-6,9-difluoro-11-hydroxy-16-methyl-3-oxo-17-[({[(2,2,3,3-tetramethylcyclopropyl)methyl]oxy}carbonyl)oxy]androsta-1,4-diene-17-carboxylate]", "values": [{"measurement": "Emax", "value": "< 25", "unit": "%"}]}, {"smiles": "CC[C@H]1CC[C@@H](OC(=O)O[C@]2(C(=O)OCF)[C@H](C)C[C@H]3[C@@H]4C[C@H](F)C5=CC(=O)C=C[C@]5(C)[C@@]4(F)[C@@H](O)C[C@@]32C)CC1", "note": "(relative stereo) [Example 36, Fluoromethyl(6α,11β,16α,17α)-17-({[(cis-4-ethylcyclohexyl)oxy]carbonyl}oxy)-6,9-difluoro-11-hydroxy-16-methyl-3-oxoandrosta-1,4-diene-17-carboxylate]", "values": [{"measurement": "Emax", "value": "< 25", "unit": "%"}]}, {"smiles": "CC(OC(=O)O[C@]1(C(=O)OCF)[C@H](C)C[C@H]2[C@@H]3C[C@H](F)C4=CC(=O)C=C[C@]4(C)[C@@]3(F)[C@@H](O)C[C@@]21C)C(C)(C)C", "note": "(stereo partly drawn) [Example 23, Fluoromethyl(6α,11β,16α,17α)-6,9-difluoro-11-hydroxy-16-methyl-3-oxo-17-({[(1,2,2-trimethylpropyl)oxy]carbonyl}oxy)androsta-14-diene-17-carboxylate]", "values": [{"measurement": "Emax", "value": "< 25", "unit": "%"}]}]}
